Structures can show the parent of a compound that is named as a salt.

For the assay, the target named is T1, Proton Pump (H^+,K^+-ATPase) (Sus scrofa, UniProt P19156).
T1 construct: gastric vesicles were isolated from porcine stomachs; from tissue; host or cells: porcine stomach (gastric vesicles)
Put plainly: Inhibitory activity on proton pump (H+,K+-ATPase) activity, porcine gastric vesicles, malachite green readout. In kind it is biochemical. Particulars: for IC50: porcine gastric vesicles, pH 6.5, 8 mM KCl, 0.2 mM ATP. Put shortly:
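Porcine gastric vesicles (100 ng) preincubated 30 min at 37°C with […] valinomycin and compound (0.1% DMSO final) in 50 mM Tris-HEPES, 5 mM MgCl2, 8 mM KCl, pH 6.5, then 0.2 mM ATP for 20 min at 37°C. Released phosphate measured by malachite green at 620 nm; IC50 via nonlinear regression of % inhibition.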

T1 sequence (P19156 2-1034 limits assumed): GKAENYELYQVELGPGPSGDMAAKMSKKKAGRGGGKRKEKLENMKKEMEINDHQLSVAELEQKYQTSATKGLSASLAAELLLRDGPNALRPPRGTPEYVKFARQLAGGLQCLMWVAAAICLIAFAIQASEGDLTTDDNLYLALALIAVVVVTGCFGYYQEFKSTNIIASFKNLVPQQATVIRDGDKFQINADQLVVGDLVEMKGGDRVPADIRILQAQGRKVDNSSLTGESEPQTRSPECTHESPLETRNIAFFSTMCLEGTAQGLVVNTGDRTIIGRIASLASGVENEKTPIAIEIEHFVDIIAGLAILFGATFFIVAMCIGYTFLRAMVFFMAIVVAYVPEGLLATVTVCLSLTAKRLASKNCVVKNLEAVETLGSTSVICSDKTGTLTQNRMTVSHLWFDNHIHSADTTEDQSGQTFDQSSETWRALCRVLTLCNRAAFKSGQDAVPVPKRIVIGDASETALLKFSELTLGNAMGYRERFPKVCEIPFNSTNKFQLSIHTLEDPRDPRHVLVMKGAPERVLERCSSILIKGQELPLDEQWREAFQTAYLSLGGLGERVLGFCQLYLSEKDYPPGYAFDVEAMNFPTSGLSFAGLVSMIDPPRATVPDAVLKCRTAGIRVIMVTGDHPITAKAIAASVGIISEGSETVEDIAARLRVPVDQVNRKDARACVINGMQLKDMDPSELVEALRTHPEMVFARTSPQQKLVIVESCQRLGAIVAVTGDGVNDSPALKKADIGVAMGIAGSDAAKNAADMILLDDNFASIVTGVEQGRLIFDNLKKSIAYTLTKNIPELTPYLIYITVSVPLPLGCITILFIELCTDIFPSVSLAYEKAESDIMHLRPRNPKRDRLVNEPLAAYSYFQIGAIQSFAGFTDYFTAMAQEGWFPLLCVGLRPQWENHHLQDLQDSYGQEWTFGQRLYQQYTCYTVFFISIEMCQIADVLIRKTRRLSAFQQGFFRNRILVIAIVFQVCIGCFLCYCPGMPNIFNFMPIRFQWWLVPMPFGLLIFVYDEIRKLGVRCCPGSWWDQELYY
T1 sequence (P18434 whole entry partner): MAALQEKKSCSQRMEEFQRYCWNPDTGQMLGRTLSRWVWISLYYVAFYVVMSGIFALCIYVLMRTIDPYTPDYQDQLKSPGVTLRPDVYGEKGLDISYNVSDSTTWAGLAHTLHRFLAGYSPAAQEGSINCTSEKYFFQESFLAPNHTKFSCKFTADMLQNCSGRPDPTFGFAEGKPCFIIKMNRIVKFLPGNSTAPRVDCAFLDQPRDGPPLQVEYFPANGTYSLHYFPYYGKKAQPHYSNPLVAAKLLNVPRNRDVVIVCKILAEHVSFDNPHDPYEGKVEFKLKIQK

In general, IC50 refers to the point on the concentration scale where inhibition reaches its midpoint. Low readings indicate inhibition by little substance, high ones a need for much substance. In turn, `Cc1cccc(C)c1CNc1cc(NC(=O)N[C@@H]2CCc3ccccc32)cn2c(C)c(C)nc12` [Example 80, (R)-1-(2,3-dihydro-1H-inden-1-yl)-3-(8-((2,6-dimethylbenzyl)amino)-2,3-dimethylimidazo[1,2-a]pyridin-6-yl)urea hydrochloride] displayed an IC50 greater than 500 nM.
Still for that read-out and setting: next, `Cc1cccc(C)c1CNc1cc(NC(=O)N2Cc3ccccc3C2)cn2c(C)c(C)nc12` [Example 67, N-(8-((2,6-dimethylbenzyl)amino)-2,3-dimethylimidazo[1,2-a]pyridin-6-yl)isoindoline-2-carboxamide]: 50 to 100 nM.
With `Cc1cccc(C)c1CNc1cc(NC(=O)CN2CCC2=O)cn2c(C)c(C)nc12` [Example 81, N-(8-((2,6-dimethylbenzyl)amino)-2,3-dimethylimidazo [1,2-a]pyridin-6-yl)-2-(2-oxoazetidin-1-yl)acetamide], the IC50 is 50 to 100 nM.
As to `Cc1cccc(C)c1CNc1cc(NC(=O)C(C)(C)C)cn2c(C)c(C)nc12` [Example 8, N-(8-((2,6-dimethylbenzyl)amino)-2,3-dimethylimidazo[1,2-a]pyridin-6-yl)pivalamide], the concentration for half-maximal inhibition (IC50) was greater than 500 nM.
`COC(=O)c1cc(NCc2c(C)cccc2C)c2nc(C)c(C)n2c1` [Comparative Example 2, reference compound] yielded an IC50 greater than 500 nM. The “inhibitory activity against proton pump activity” value (result in words) was “weak inhibitory activity”.
As to `Cc1cccc(C)c1CNc1cc(NC(=O)N2CCNCC2)cn2c(C)c(C)nc12` [Example 103, N-(8-((2,6-dimethylbenzyl)amino)-2,3-dimethylimidazo[1,2-a]pyridin-6-yl)piperazine-1-carboxamide hydrochloride], the concentration for half-maximal inhibition (IC50) is 100 to 500 nM.
On to `Cc1cccc(C)c1CNc1cc(NC(=O)C[C@H]2CCCN2)cn2c(C)c(C)nc12` [Example 91, (R)-N-(8-((2,6-dimethylbenzyl)amino)-2,3-dimethylimidazo[1,2-a]pyridin-6-yl)-2-(pyrrolidin-2-yl)acetamide hydrochloride], for which the half-inhibitory concentration (IC50) lay within 50 to 100 nM.
For the compound `Cc1cccc(C)c1CNc1cc(NC(=O)c2ncco2)cn2c(C)c(C)nc12` [Example 14, N-(8-((2,6-dimethylbenzyl)amino)-2,3-dimethylimidazo[1,2-a]pyridin-6-yl)oxazole-2-carboxamide], the half-inhibitory concentration (IC50) lay within 100 to 500 nM.
Regarding `Cc1cccc(C)c1CNc1cc(NC(=O)N2CCC2)cn2c(C)c(C)nc12` [Example 6, N-(8-((2,6-dimethylbenzyl)amino)-2,3-dimethylimidazo[1,2-a]pyridin-6-yl)azetidine-1-carboxamide], the IC50 was 50 to 100 nM.
For `CC(=O)Oc1ccc(/C=C/C(=O)Nc2cc(NCc3c(C)cccc3C)c3nc(C)c(C)n3c2)cc1` [Example 107, (E)-4-(3-((8-((2,6-dimethylbenzyl)amino)-2,3-dimethylimidazo[1,2-a]pyridin-6-yl)amino)-3-oxoprop-1-en-1-yl)phenyl acetate], the IC50 was greater than 500 nM.
For the compound `Cc1cccc(C)c1CNc1cc(NC(=O)NC23CC(C2)C3)cn2c(C)c(C)nc12` [Example 29, 1-(bicyclo[1.1.1]pentan-1-yl)-3-(8-((2,6-dimethylbenzyl)amino)-2,3-dimethylimidazo[1,2-a]pyridin-6-yl)urea hydrochloride], the IC50 is greater than 500 nM.
`Cc1cccc(C)c1CNc1cc(NC(=O)NCCN)cn2c(C)c(C)nc12` [Example 37, 1-(2-aminoethyl)-3-(8-((2,6-dimethylbenzyl)amino)-2,3-dimethylimidazo[1,2-a]pyridin-6-yl)urea hydrochloride] gave a 50% inhibitory concentration (IC50) of 50 to 100 nM.
On to `Cc1cccc(C)c1CNc1cc(NC(=O)C2CC2)cn2c(C)c(C)nc12` [Example 2, N-(8-((2,6-dimethylbenzyl)amino)-2,3-dimethylimidazo[1,2-a]pyridin-6-yl)cyclopropanecarboxamide], for which the IC50 lay in the range of 100 to 500 nM.
The compound `Cc1cc(F)cc(C)c1CNc1cc(NC(=O)NC2CC2)cn2c(C)c(C)nc12` [Example 50, 1-cyclopropyl-3-(8-((4-fluoro-2,6-dimethylbenzyl)amino)-2,3-dimethylimidazo[1,2-a]pyridin-6-yl)urea hydrochloride] gave a half-maximal inhibitory concentration (IC50) of less than 50 nM.
“tert-butyl (2-(3-(8-((2,6-dimethylbenzyl)amino)-2,3-dimethylimidazo[1,2-a]pyridin-6-yl)ureido)ethyl)carbamate hydrochloride [Example 42]” had an IC50 of 100 to 500 nM.
Same read-out and setting: the figure for `Cc1cccc(C)c1CNc1cc(NC(=O)C(C)(C)N)cn2c(C)c(C)nc12` [Example 27, 2-amino-N-(8-((2,6-dimethylbenzyl)amino)-2,3-dimethylimidazo[1,2-a]pyridin-6-yl)-2-methylpropanamide hydrochloride] is 50 to 100 nM; for `Cc1cccc(C)c1CNc1cc(NC(=O)N2CCC(c3ccccc3)C2)cn2c(C)c(C)nc12` (stereo not shown) [Example 84, N-(8-((2,6-dimethylbenzyl)amino)-2,3-dimethylimidazo[1,2-a]pyridin-6-yl)-3-phenylpyrrolidine-1-carboxamide] it is 100 to 500 nM.
In the case of `Cc1cccc(C)c1CNc1cc(NC(=O)NC2CCC2)cn2c(C)c(C)nc12` [Example 23, 1-cyclobutyl-3-(8-((2,6-dimethylbenzyl)amino)-2,3-dimethylimidazo[1,2-a]pyridin-6-yl)urea hydrochloride], the IC50 was in the range of 50 to 100 nM.
Consider `Cc1cccc(C)c1CNc1cc(NC(=O)CCN)cn2c(C)c(C)nc12` [Example 99, 3-amino-N-(8-((2,6-dimethylbenzyl)amino)-2,3-dimethylimidazo[1,2-a]pyridin-6-yl)propanamide hydrochloride], for which the IC50 lay in the range of 50 to 100 nM.
For `Cc1cccc(C)c1CNc1cc(NC(=O)C2CCC2)cn2c(C)c(C)nc12` [Example 5, N-(8-((2,6-dimethylbenzyl)amino)-2,3-dimethylimidazo[1,2-a]pyridin-6-yl)cyclobutanecarboxamide], the IC50 lay in the range of 100 to 500 nM.
Consider `Cc1cccc(C)c1CNc1cc(NC(=O)N(C)CCN)cn2c(C)c(C)nc12` [Example 87, 1-(2-aminoethyl)-3-(8-((2,6-dimethylbenzyl)amino)-2,3-dimethylimidazo[1,2-a]pyridin-6-yl)-1-methylurea hydrochloride], for which the IC50 is less than 50 nM.
Still for that read-out and setting: the figure for `Cc1cccc(C)c1CNc1cc(NC(=O)NCC(=O)O)cn2c(C)c(C)nc12` [Example 70, ((8-((2,6-dimethylbenzyl)amino)-2,3-dimethylimidazo[1,2-a]pyridin-6-yl)carbamoyl)glycine hydrochloride] is 100 to 500 nM.
In the case of `Cc1cccc(C)c1CNc1cc(NC(=O)C2CCCCC2)cn2c(C)c(C)nc12` [Example 3, N-(8-((2,6-dimethylbenzyl)amino)-2,3-dimethylimidazo[1,2-a]pyridin-6-yl)cyclohexanecarboxamide], the IC50 is greater than 500 nM.
Still for that read-out and setting: next, `Cc1cccc(C)c1CNc1cc(NC(=O)C(F)F)cn2c(C)c(C)nc12` [Example 9, N-(8-((2,6-dimethylbenzyl)amino)-2,3-dimethylimidazo [1,2-a]pyridin-6-yl)-2,2-difluoroacetamide]: greater than 500 nM.
For the compound `CC(=O)OCC(=O)Nc1cc(NCc2c(C)cccc2C)c2nc(C)c(C)n2c1` [Example 25, 2-((8-((2,6-dimethylbenzyl)amino)-2,3-dimethylimidazo[1,2-a]pyridin-6-yl)amino)-2-oxoethyl acetate], the IC50 was in the range of 100 to 500 nM.
In the case of `Cc1cccc(C)c1CNc1cc(NC(=O)CNC(=O)C(F)F)cn2c(C)c(C)nc12` [Example 56, N-(2-((8-((2,6-dimethylbenzyl)amino)-2,3-dimethylimidazo[1,2-a]pyridin-6-yl)amino)-2-oxoethyl)-2,2-difluoroacetamide], the IC50 was greater than 500 nM.
As for `Cc1cccc(C)c1CNc1cc(NC(=O)[C@@H]2CCCCN2)cn2c(C)c(C)nc12` [Example 106, (S)-N-(8-((2,6-dimethylbenzyl)amino)-2,3-dimethylimidazo[1,2-a]pyridin-6-yl)piperidine-2-carboxamide hydrochloride], the half-maximal inhibitory concentration (IC50) was in the range of 100 to 500 nM.
In turn, `CNC(=O)Nc1cc(NCc2c(C)cc(F)cc2C)c2nc(C)c(C)n2c1` [Example 44, 1-(8-((4-fluoro-2,6-dimethylbenzyl)amino)-2,3-dimethylimidazo[1,2-a]pyridin-6-yl)-3-methylurea hydrochloride] came in with an IC50 of less than 50 nM.
`Cc1cccc(C)c1CNc1cc(NC(=O)NCC2CCOC2)cn2c(C)c(C)nc12` (stereo not shown) [Example 74, 1-(8-((2,6-dimethylbenzyl)amino)-2,3-dimethylimidazo[1,2-a]pyridin-6-yl)-3-((tetrohydrofuran-3-yl)methyl)urea hydrochloride] returned an IC50 of 50 to 100 nM.
Compound `Cc1cccc(C)c1CNc1cc(NC(=O)N2CCCC2)cn2c(C)c(C)nc12` [Example 11, N-(8-((2,6-dimethylbenzyl)amino)-2,3-dimethylimidazo[1,2-a]pyridin-6-yl)pyrrolidine-1-carboxamide] displayed an IC50 of 100 to 500 nM.
The same measure, in the same setting: the figure for `CC(=O)NCC(=O)Nc1cc(NCc2c(C)cccc2C)c2nc(C)c(C)n2c1` [Example 52, 2-acetamido-N-(8-((2,6-dimethylbenzyl)amino)-2,3-dimethylimidazo[1,2-a]pyridin-6-yl)acetamide] is 100 to 500 nM; for `Cc1cccc(C)c1CNc1cc(NC(=O)N2CC3(CCC3)C2)cn2c(C)c(C)nc12` [Example 66, N-(8-((2,6-dimethylbenzyl)amino)-2,3-dimethylimidazo[1,2-a]pyridin-6-yl)-2-azaspiro[3.3]heptane-2-carboxamide citrate] it is 100 to 500 nM.
The compound `CC(=O)O[C@@H](C)C(=O)Nc1cc(NCc2c(C)cc(F)cc2C)c2nc(C)c(C)n2c1` [Example 112, (S)-1-((8-((4-fluoro-2,6-dimethylbenzyl)amino)-2,3-dimethylimidazo[1,2-a]pyridin-6-yl)amino)-1-oxopropan-2-yl acetate] returned a half-inhibitory concentration (IC50) greater than 500 nM.

For the origin of these results see EP4778924A1 (Huons Co., Ltd., priority 2023, dated 2025).
